Measured values taken from US8703796B2, “3H-imidazo [4, 5-B] pyridine-6-carboxamides as anti-inflammatory agents” (Boehringer Ingelheim International GmbH, priority 2008, dated 2014).

biological target: T1, recombinant human mPGES-1 (Homo sapiens, UniProt O14684); test: mPGES-1 inhibition, HTRF detection of PGE2; format: biochemical
T1 construct: made in house; host or cells: Rosetta E. coli (microsomal/membrane fraction)
T1 sequence (O14684 1-152): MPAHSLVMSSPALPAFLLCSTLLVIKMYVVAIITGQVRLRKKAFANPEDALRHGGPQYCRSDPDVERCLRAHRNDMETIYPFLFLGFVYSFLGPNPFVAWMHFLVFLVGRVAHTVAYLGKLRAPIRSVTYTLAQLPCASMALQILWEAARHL
Outline: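 First, inhibitor is incubated with microsomal enzyme from Rosetta E. coli in KPi pH 7.4 containing 2.5 mM GSH for 25 minutes at room temperature. Next, PGH2 is added and stopped after one minute with FeCl2 stop solution. Finally, diluted samples undergo HTRF PGE2 quantification.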

| SMILES | inhibition at 10 µM [%] | inhibition at 1 µM [%] |
| --- | --- | --- |
| Cn1c(Nc2c(Cl)cccc2Cl)nc2cc(C(=O)Nc3ccc(Br)cc3)cnc21 [Example 463, N-(4-Bromophenyl)-2-(2,6-dichlorophenylamino)-3-methyl-3H-imidazo[4,5-b]pyridine-6-carboxamide] | 97 | – |
| O=C(N[C@H]1CC[C@H](C(F)(F)F)CC1)c1cc2nc(Nc3ccccc3C(F)(F)F)[nH]c2nc1OCC(F)F [Example 784, 2-(2-Trifluoromethyl-phenylamino)-5-(2,2-difluoro-ethoxy)-N-(trans-4-trifluoromethyl-cyclohexyl)-3H-imidazo[4,5-b]pyridine-6-carboxamide] | 97 | – |
| CC1(C)CCC(NC(=O)c2cnc3[nH]c(Nc4c(Cl)cccc4Cl)nc3c2)CC1 [Example 429, 2-(2,6-Dichlorophenylamino)-N-(4,4-dimethylcyclohexyl)-3H-imidazo[4,5-b]pyridine-6-carboxamide] | 97 | – |
| CC1(C)CCC(NC(=O)c2cnc3c(c2)nc(Nc2c(Cl)cccc2Cl)n3Cc2ccccc2)CC1 [Example 413, 3-Benzyl-2-(2,6-dichlorophenylamino)-N-(4,4-dimethylcyclohexyl)-3H-imidazo[4,5-b]pyridine-6-carboxamide] | 100 | – |
| COCCOc1nc2[nH]c(Nc3c(Cl)cncc3Cl)nc2cc1C(=O)Nc1ccc(Br)cc1 [Example 801, 2-(3,5-Dichloro-pyridin-4-ylamino)-5-(2-methoxy-ethoxy)-N-(4-bromo-phenyl)-3H-imidazo[4,5-b]pyridine-6-carboxamide] | 96 | – |
| CCCCCC[C@H](C)NC(=O)c1cnc2c(c1)nc(Nc1c(Cl)cccc1Cl)n2C [Example 471, (S)-2-(2,6-Dichlorophenylamino)-3-methyl-N-(oct-2-yl)-3H-imidazo[4,5-b]pyridine-6-carboxamide] | 99 | – |
| Cn1c(Nc2c(Cl)cc(F)cc2Cl)nc2cc(C(=O)NCC(F)(F)C(F)(F)C(F)(F)C(F)(F)F)c(OCC(F)F)nc21 [Example 872, 2-(2,6-Dichloro-4-fluoro-phenylamino)-5-(2,2-difluoro-ethoxy)-N-(2,2,3,3,4,4,5,5,5-nonafluoropentyl)-3-methyl-3H-imidazo[4,5-b]pyridine-6-carboxamide] | 100 | – |
| Cc1cc(C)c(Nc2nc3cc(C(=O)N[C@H]4CC[C@H](C(F)(F)F)CC4)c(OCC(F)F)nc3[nH]2)c(Cl)n1 [Example 793, 2-(2-Chloro-4,6-dimethyl-pyridin-3-ylamino)-5-(2,2-difluoro-ethoxy)-N-(trans-4-trifluoromethyl-cyclohexyl)-3H-imidazo[4,5-b]pyridine-6-carboxamide] | 94 | – |
| Cn1c(Nc2c(F)cccc2C(F)(F)F)nc2cc(C(=O)N[C@H]3CC[C@H](C(F)(F)F)CC3)c(OCC(F)F)nc21 [Example 780, 2-(2-Fluoro-6-trifluoromethyl-phenylamino)-5-(2,2-difluoro-ethoxy)-N-(trans-4-trifluoromethyl-cyclohexyl)-3-methyl-3H-imidazo[4,5-b]pyridine-6-carboxamide] | – | 100 |
| CCOc1nc2[nH]c(Nc3c(Cl)cncc3Cl)nc2cc1C(=O)NCC(F)(F)C(F)(F)C(F)(F)C(F)(F)F [Example 844, 2-(3,5-Dichloro-pyridin-4-ylamino)-5-ethoxy-N-(2,2,3,3,4,4,5,5,5-nonafluoro-pentyl)-3H-imidazo[4,5-b]pyridine-6-carboxamide] | 100 | – |
| O=C(Nc1cc(C(F)(F)F)ccn1)c1cc2nc(Nc3c(Cl)cc(F)cc3Cl)[nH]c2nc1OCC(F)F [Example 821, 2-(2,6-Dichloro-4-fluoro-phenylamino)-5-(2,2-difluoro-ethoxy)-N-(4-trifluoromethyl-pyridin-2-yl)-3H-imidazo[4,5-b]pyridine-6-carboxamide] | 90 | – |
| Cc1ccnc(Cl)c1Nc1nc2cc(C(=O)N[C@H]3CC[C@H](C(F)(F)F)CC3)c(OCC(F)F)nc2[nH]1 [Example 797, 2-(2-Chloro-4-methyl-pyridin-3-ylamino)-5-(2,2-difluoro-ethoxy)-N-(trans-4-trifluoromethyl-cyclohexyl)-3H-imidazo[4,5-b]pyridine-6-carboxamide] | 100 | – |
| O=C(NC1CCC2(CC1)CC2)c1cnc2[nH]c(Nc3c(Cl)cccc3Cl)nc2c1 [Example 485, 2-(2,6-Dichlorophenylamino)-N-(spiro[2.5]octan-6-yl)-3H-imidazo[4,5-b]pyridine-6-carboxamide] | 98 | – |
| Cc1ccnc(Br)c1Nc1nc2cc(C(=O)N[C@H]3CC[C@H](C(F)(F)F)CC3)c(OCC(F)F)nc2n1C [Example 786, 2-(2-Bromo-4-methyl-pyridin-3-ylamino)-5-(2,2-difluoro-ethoxy)-N-(trans-4-trifluoromethyl-cyclohexyl)-3-methyl-3H-imidazo[4,5-b]pyridine-6-carboxamide] | 92 | – |
| O=C(N[C@H]1CC[C@H](C(F)F)CC1)c1cnc2[nH]c(Nc3c(Cl)cccc3Cl)nc2c1 [Example 535, 2-(2,6-Dichlorophenylamino)-N-((1r,4r)-4-(difluoromethyl)cyclohexyl)-3H-imidazo[4,5-b]pyridine-6-carboxamide] | 100 | – |
| COCCOc1nc2[nH]c(Nc3c(Cl)cncc3Cl)nc2cc1C(=O)NCc1ccccc1C(F)(F)F [Example 800, 2-(3,5-Dichloro-pyridin-4-ylamino)-5-(2-methoxy-ethoxy)-N-((2-trifluoromethyl-phenyl)-methyl)-3H-imidazo[4,5-b]pyridine-6-carboxamide] | 98 | – |
| Cn1c(Nc2c(Cl)cncc2Cl)nc2cc(C(=O)NCC(F)(F)C(F)(F)C(F)(F)C(F)(F)F)c(OCC(F)F)nc21 [Example 840, 2-(3,5-Dichloro-pyridin-4-ylamino)-5-(2,2-difluoro-ethoxy)-N-(2,2,3,3,4,4,5,5,5-nonafluoropentyl)-3-methyl-3H-imidazo[4,5-b]pyridine-6-carboxamide] | 99 | – |
| COc1nc2c(cc1C(=O)Nc1ccc(Br)cc1)nc(Nc1c(Cl)cccc1Cl)n2C [Example 377, N-(4-Bromophenyl)-2-(2,6-dichlorophenylamino)-5-methoxy-3-methyl-3H-imidazo[4,5-b]pyridine-6-carboxamide] | 100 | – |
| CCCCCCCCNC(=O)c1cnc2c(c1)nc(Nc1c(Cl)cccc1Cl)n2C [Example 403, 2-(2,6-Dichlorophenylamino)-3-methyl-N-octyl-3H-imidazo[4,5-b]pyridine-6-carboxamide] | 100 | – |

The remaining lines, values ahead:

| inhibition at 10 µM [%] | inhibition at 1 µM [%] | SMILES |
| --- | --- | --- |
| 100 | – | Cn1c(Nc2c(Cl)cncc2Cl)nc2cc(C(=O)Nc3ccc(Br)cc3)c(OC3CCOC3)nc21 (stereo not shown) [Example 848, 2-(3,5-Dichloro-pyridin-4-ylamino)-5-(tetrahydrofuran-3-yl-oxy)-N-(4-bromo-phenyl)-3-methyl-3H-imidazo[4,5-b]pyridine-6-carboxamide] |
| 95 | – | Cn1c(Nc2c(Cl)cncc2Cl)nc2cc(C(=O)Nc3cc(C(F)(F)F)ccn3)c(OCC(F)(F)F)nc21 [Example 852, 2-(3,5-Dichloro-pyridin-4-ylamino)-5-(2,2,2-trifluoro-ethoxy)-N-(4-trifluoromethyl-pyridin-2-yl)-3-methyl-3H-imidazo[4,5-b]pyridine-6-carboxamide] |
| 98 | – | Cn1c(Nc2c(Cl)cncc2Cl)nc2cc(C(=O)NCc3ccccc3C(F)(F)F)c(OCC(F)F)nc21 [Example 839, 2-(3,5-Dichloro-pyridin-4-ylamino)-5-(2,2-difluoro-ethoxy)-N-(2-trifluoromethyl-benzyl)-3-methyl-3H-imidazo[4,5-b]pyridine-6-carboxamide] |
| 100 | – | COc1nc2c(cc1C(=O)NCc1ncccc1C(F)(F)F)nc(Nc1c(Cl)cccc1Cl)n2C [Example 860, 2-(2,6-Dichloro-phenylamino)-5-methoxy-N-((3-trifluoromethyl-pyridin-2-yl)-methyl)-3-methyl-3H-imidazo[4,5-b]pyridine-6-carboxamide] |
| 100 | – | COCCOc1nc2c(cc1C(=O)N[C@H]1CC[C@H](C(F)(F)F)CC1)nc(Nc1c(Cl)cncc1Cl)n2C [Example 868, 2-(3,5-Dichloro-pyridin-4-ylamino)-5-(2-methoxy-ethoxy)-N-(trans-4-trifluoromethyl-cyclohexyl)-3-methyl-3H-imidazo[4,5-b]pyridine-6-carboxamide] |
| 100 | – | Cn1c(Nc2c(Cl)cc(F)cc2Cl)nc2cc(C(=O)NCc3ccccc3C(F)(F)F)c(OCC(F)F)nc21 [Example 871, 2-(2,6-Dichloro-4-fluoro-phenylamino)-5-(2,2-difluoro-ethoxy)-N-(2-trifluoromethyl-benzyl)-3-methyl-3H-imidazo[4,5-b]pyridine-6-carboxamide] |
| 99 | – | CCOc1nc2[nH]c(Nc3c(Cl)cncc3Cl)nc2cc1C(=O)NCc1ncccc1C(F)(F)F [Example 843, 2-(3,5-Dichloro-pyridin-4-ylamino)-5-ethoxy-N-((3-trifluoromethyl-pyridin-2-yl)-methyl)-3H-imidazo[4,5-b]pyridine-6-carboxamide] |
| 100 | – | O=C(NCc1ncccc1C(F)(F)F)c1cc2nc(Nc3c(Cl)cc(F)cc3Cl)[nH]c2nc1OCC(F)F [Example 826, 2-(2,6-Dichloro-4-fluoro-phenylamino)-5-(2,2-difluoro-ethoxy)-N-((3-trifluoromethyl-pyridin-2-yl)-methyl)-3H-imidazo[4,5-b]pyridine-6-carboxamide] |
| 100 | – | O=C(NCc1ccccc1C(F)(F)F)c1cc2nc(Nc3c(Cl)cc(F)cc3Cl)[nH]c2nc1OCC(F)F [Example 824, 2-(2,6-Dichloro-4-fluoro-phenylamino)-5-(2,2-difluoro-ethoxy)-N-(2-trifluoromethyl-benzyl)-3H-imidazo[4,5-b]pyridine-6-carboxamide] |
